In paper PMC6060094, “Structural determinants of the catalytic mechanism of Plasmodium CCT, a key enzyme of malaria lipid biosynthesis” (Scientific Reports, 2018) one finds Km data, which are given here for one compound.

The target of this assay is PfCCT(528–795) K663A (Plasmodium falciparum, UniProt Q8IEE9, DEL720-737/K663A). The assay can be described thus: Continuous coupled colorimetric enzyme activity assay (PPase/PNP/MESG). As to conditions: refers to a phosphohydrolase activity; ChoP fixed 5 mM; read-out: KM,CTP. The class given is biochemical. The text has this: The presence of Cho in the active site at least partially stabilizes the K663 side chain, while ChoP or CDPCho accommodation renders this residue fully visualized. The K663 terminal amino moiety points towards the phosphate group of ChoP or both phosphate moieties of CDPCho, in somewhat different conformations (Fig. 3e and Supplementary Fig. S3). These structural insights showing variable detection and interactions of K663 prompted us to an in-depth definition of its role throughout the course of the catalytic mechanism. We interrogated the functionality of this residue by site directed mutagenesis followed by biochemical analysis. […] The enzymatic activity was monitored by a coupled pyrophosphatase (PPase) assay and consisted of two consecutive steps: the cleavage of the byproduct pyrophosphate into two phosphates and the addition of phosphates to a nucleotide derivative, resulting a chromophore substance. […] The accumulation of free phosphate in the absence of the substrate, ChoP, argued for a CTP phosphohydrolase (CTP → CDP + Pi) activity of the K663A mutant (Supplementary Fig. S4). […] For reliable characterization of ligand interactions of this lysine, we measured the equilibrium ligand binding of CDPCho and CTP to PfCCT(528–795) K663A (Table 2 and Supplementary Fig. S4). […]
Chain of PfCCT(528–795) K663A (Q8IEE9 528-795, stated change not applied): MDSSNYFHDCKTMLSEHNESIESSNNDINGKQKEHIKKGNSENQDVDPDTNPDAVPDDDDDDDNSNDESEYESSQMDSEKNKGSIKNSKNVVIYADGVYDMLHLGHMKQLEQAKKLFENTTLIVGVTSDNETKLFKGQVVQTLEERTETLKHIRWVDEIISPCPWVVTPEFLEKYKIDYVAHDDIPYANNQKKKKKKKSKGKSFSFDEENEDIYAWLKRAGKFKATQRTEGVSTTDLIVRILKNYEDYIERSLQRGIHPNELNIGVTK

Consider `Nc1ccn([C@@H]2O[C@H](COP(=O)(O)OP(=O)(O)OP(=O)(O)O)[C@@H](O)[C@H]2O)c(=O)n1` [CTP], for which the Km (in general, the concentration of substrate that gives half-maximal velocity) was determined as 70 ± 20 µM.
